Measurements from patent publication US20260250312A1, “ANTIBACTERIAL COMPOUNDS ELIMINATING DORMANT BACTERIAL CELLS” (UNIVERSITÉ D'AIX-MARSEILLE, priority 2022, published 2026).
≈ marks a conversion by molar mass, not a printed value. Where “and” joins values, the source holds several entries; their conditions need not be identical. Equal values may be shown once. Read-outs that look alike come from different tables or passages of the source.

Legend:
[1] = tested on: Escherichia coli (ATCC28922); assay: Microdilution MIC assay (CLSI-based), E. coli; type: cell-based; settings: 20 hours incubation at 35-37° C., MHB; for MIC: read-out: Minimum inhibitory concentration E. coli ATCC28922
Description: (§1) The antibacterial activity of compounds was measured using a standard microdilution assay based on the Clinical and Laboratory Standards Institute (CLSI) guidelines. This method was slightly modified. Indeed, assay volumes were increased to 200 μL to improve reproducibility. The chemical compounds to be tested were in the form of salts for biological testing.
(§2) Bacteria tested: Antibacterial activities of the compounds were tested on Staphylococcus aureus (ATCC25923), Enterococcus faecalis (ATCC29212), Escherichia coli ([…]) and Pseudomonas aeruginosa (ATCC27853).
(§3) Preparation of the Preculture: Mueller Hinton Agar plates were inoculated with frozen biological strain in order to obtain separate colonies and the plates were incubated during 24 h at 35-37° C. 3 colonies of similar aspect were picked out, resuspended in 5 mL of fresh Mueller Hinton broth 1× (MHB) and incubated with shaking (160 rpm) at 35-37° C. overnight.
(§4) 0.1 mL of bacteria in exponential phase were suspended in 9.9 mL of MHB (1:100 dilution). 0.1 mL of the 1:100 dilution were dispensed into the wells of microplates containing 0.1 ml of serial compounds dilutions to yield ca. 5×10^5 CFU/mL. In parallel, the stocks solutions of chemical compounds were first diluted in appropriate solvent to a final concentration of 5 mg/mL. 8 μL were dispended into the first wells of the microplates containing 0.1 ml of sterile broth and a 0.5 cascade dilution was performed in MHB from 0.2 mg/mL. One control was made for each strain tested. […] Tests were performed in triplicate.
(§5) Reading of the Results: After incubation, the filter was replaced with a transparent film, and an optical density reading was then taken in an iEMS plate spectrophotometer at 620 nm. Calculation of the minimum inhibitory concentration (MIC) was performed.

[2] = tested on: Enterococcus faecalis (ATCC29212); assay: Microdilution MIC assay (CLSI-based), E. faecalis; type: cell-based; settings: 20 hours incubation at 35-37° C., MHB; for MIC: read-out: Minimum inhibitory concentration E. faecalis ATCC29212
Description: as §1, §2, §3, §4, §5

CHO-K1 cells = assay: WST1 cytotoxicity test; type: cell-based, Chinese hamster; settings: Cricetulus griseus, CHO-K1, 24 h, WST1, 24 hours at 37° C.; read-out: IC50 CHO
Text: Cytotoxicity: The test WST1 was used to measure the cytotoxic activity of the compounds of the invention. The test WST1 is a colorimetric test allowing to measure the viability and the degree of cell proliferation. It is based on cleavage of the colorless tetrazolium salts WST-1 (4—[3-(4-iodophenyl)-2-(4-nitrophenyl)-2H-5-tetrazolio]-1,3-benzene disulfonate) with mitochondrial dehydrogenases to the yellow-colored formazan derivative, which may be quantified by spectrophotometry at 420-480 nm. The WST1 test was performed on Chinese hamster ovary (CHO) cells. The CHO-K1 cells (ATCC, USA) were kept in culture in McCoy's 5A medium supplemented with 10% fetal calf serum, 2 mM of L-glutamine and a mixture of penicillin-streptomycin (100 U/ml: 10 μg/mL). The culture was incubated at 37° C. under an atmosphere enriched in CO2 (5%), and subcultured every two days. The cells were transferred into 96-well plates (25,000 cells/mL) in whole McCoy's 5A medium, and maintained for 24 hours at 37° C. under a humid atmosphere enriched in CO2 (5%). Increasing concentrations of tested compounds were added to the wells, each compound was tested in replicates and 8 growth controls containing the cells in the medium alone were included in each series of tests. After 24 hours at 37° C. (5% CO2), the culture medium was removed, the cells were rinsed in phosphate buffer (PBS) and 50 μL of PBS containing 10% of reagent WST1 were added to each well. After 20 minutes of incubation at 37° C., the results were read by spectrophotometry at 450 nm. The results are expressed in dose-response relationships, modeled by nonlinear regression analysis using the TableCurve software.
Cytotoxicity: The same WST1 test as described in Example 2 above was used.

[3] = tested on: Staphylococcus aureus (ATCC25923); assay: Microdilution MIC assay (CLSI-based), S. aureus; type: cell-based; settings: 20 hours incubation at 35-37° C., MHB; for MIC: read-out: Minimum inhibitory concentration S. aureus ATCC25923
Description: as §1, §2, §3, §4, §5

[4] = tested on: Pseudomonas aeruginosa (ATCC27853); assay: Microdilution MIC assay (CLSI-based), P. aeruginosa; type: cell-based; settings: 20 hours incubation at 35-37° C., MHB; for MIC: read-out: Minimum inhibitory concentration P. aeruginosa ATCC27853
Description: as §1, §2, §3, §4, §5

[5] = Escherichia coli, ATCC28922, 20 h
[6] = Enterococcus faecalis, ATCC29212, 20 h
[7] = Staphylococcus aureus, ATCC25923, 20 h
[8] = Pseudomonas aeruginosa, ATCC27853, 20 h

In the case of COC(=O)[C@H](NC(=O)CC[C@@H](C)[C@H]1CCC2C3C(CC[C@@]21C)[C@@]1(C)CC[C@H](NCCCNCCCNCCCN)C[C@H]1C[C@H]3O)C(C)C (stereo partly drawn) [Compound S011, methyl ((4R)-4-((3S,5S,7R,10S,13R,17R)-3-((3-((3-((3-aminopropyl)amino)propyl)amino)propyl)amino)-7-hydroxy-10,13-dimethylhexadecahydro-1H-cyclopenta[a]phenanthren-17-yl)pentanoyl)-D-valinate], the MIC [1, 5] was 12.5 µM and 8 µg/mL, the MIC [2, 6] was 25 µM and 16 µg/mL and the IC50 (CHO-K1 cells) was 1.17 µM and 0.79 µg/mL. For the same compound, the MIC [3, 7] was 12.5 µM and 8 µg/mL and the MIC [4, 8] was 25 µM and 16 µg/mL.

In the case of COC(=O)[C@H](NC(=O)CC[C@@H](C)[C@H]1CCC2C3CC[C@@H]4C[C@@H](NCCCN(CCCN)CCCN)CC[C@]4(C)C3C[C@H](O)[C@@]21C)C(C)C (stereo partly drawn) [Compound S054, methyl ((4R)-4-((3S,5R,10S,12S,13R,17R)-3-((3-(bis(3-aminopropyl)amino)propyl)amino)-12-hydroxy-10,13-dimethylhexadecahydro-1H-cyclopenta[a]phenanthren-17-yl)pentanoyl)-D-valinate], the MIC [1, 5] was 50 µM and 32 µg/mL, the MIC [2, 6] was 100 µM and 64 µg/mL and the IC50 (CHO-K1 cells) was > 100 µM and > 67 µg/mL. The MIC [3, 7] was 6.25 µM and 4 µg/mL and the MIC [4, 8] was 100 µM and 64 µg/mL.

With COC(=O)CNC(=O)CC[C@@H](C)[C@H]1CCC2C3C(C[C@H](O)[C@@]21C)[C@@]1(C)CC[C@H](NCCCNCCCCNCCCN)C[C@H]1C[C@H]3O (stereo partly drawn) [Compound S051, methyl ((4R)-4-((3S,5S,7R,10S,12S,13R,17R)-3-((3-((4-((3-aminopropyl)amino)butyl)amino)propyl)amino)-7,12-dihydroxy-10,13-dimethylhexadecahydro-1H-cyclopenta[a]phenanthren-17-yl)pentanoyl)glycinate] the MIC [1, 5] was 25 µM and 16 µg/mL, the MIC [2, 6] was 50 µM and 32 µg/mL and the IC50 (CHO-K1 cells) was 33.3 µM and 22.1 µg/mL. The MIC [3, 7] was 6.25 µM and 4 µg/mL and the MIC [4, 8] was 25 µM and 16 µg/mL.

For COC(=O)[C@H](CC(C)C)NC(=O)CC[C@@H](C)[C@H]1CCC2C3C(CC[C@@]21C)[C@@]1(C)CC[C@H](NCCCNCCNCCCN)C[C@H]1C[C@H]3O (stereo partly drawn) [Compound S035, methyl ((4R)-4-((3S,5S,7R,10S,13R,17R)-3-((3-((2-((3-aminopropyl)amino)ethyl)amino)propyl)amino)-7-hydroxy-10,13-dimethylhexadecahydro-1H-cyclopenta[a]phenanthren-17-yl)pentanoyl)-L-leucinate], the MIC [1, 5] was 12.5 µM and 8 µg/mL, the MIC [2, 6] was 12.5 µM and 8 µg/mL and the IC50 (CHO-K1 cells) was 45.2 µM and 30.6 µg/mL. For the same compound, the MIC [3, 7] was 12.5 µM and 8 µg/mL and the MIC [4, 8] was 12.5 µM and 8 µg/mL.

In the case of COC(=O)[C@H](Cc1ccccc1)NC(=O)CC[C@@H](C)[C@H]1CCC2C3CC[C@@H]4C[C@@H](NCCCN(CCCN)CCCN)CC[C@]4(C)C3C[C@H](O)[C@@]21C (stereo partly drawn) [Compound S055, methyl ((4R)-4-((3S,5R,10S,12S,13R,17R)-3-((3-(bis(3-aminopropyl)amino)propyl)amino)-12-hydroxy-10,13-dimethylhexadecahydro-1H-cyclopenta[a]phenanthren-17-yl)pentanoyl)-L-phenylalaninate], the MIC [1, 5] was 25 µM and 16 µg/mL, the MIC [2, 6] was 50 µM and 32 µg/mL and the MIC [3, 7] was 50 µM and 32 µg/mL. For the same compound, the MIC [4, 8] was 100 µM and 64 µg/mL.

In the case of COC(=O)CNC(=O)CC[C@@H](C)[C@H]1CCC2C3C(CC[C@@]21C)[C@@]1(C)CC[C@H](NCCCNCCCCNCCCN)C[C@H]1C[C@H]3O (stereo partly drawn) [Compound S027, methyl ((4R)-4-((3S,5S,7R,10S,13R,17R)-3-((3-((4-((3-aminopropyl)amino)butyl)amino)propyl)amino)-7-hydroxy-10,13-dimethylhexadecahydro-1H-cyclopenta[a]phenanthren-17-yl)pentanoyl)glycinate], the “Minimum inhibitory concentration E. coli ATCC28922” value [1] was 8 µg/mL (≈ 12.3 µM), the MIC [1] was 12.5 µM (≈ 8.1 µg/mL) and the “Minimum inhibitory concentration E. faecalis ATCC29212” value [2] was 16 µg/mL (≈ 24.7 µM). The MIC [2] was 25 µM (≈ 16.2 µg/mL), the “Minimum inhibitory concentration S. aureus ATCC25923” value [3] was 4 µg/mL (≈ 6.17 µM) and the MIC [3] was 6.25 µM (≈ 4.05 µg/mL). The “Minimum inhibitory concentration P. aeruginosa ATCC27853” value [4] was 32 µg/mL (≈ 49.4 µM) and the MIC [4] was 50 µM (≈ 32.4 µg/mL).

COC(=O)[C@H](NC(=O)CC[C@@H](C)[C@H]1CCC2C3C(CC[C@@]21C)[C@@]1(C)CC[C@H](NCCCNCCCN)C[C@H]1C[C@H]3O)C(C)C (stereo partly drawn) [Compound S021, methyl ((4R)-4-((3S,5S,7R,10S,13R,17R)-3-((3-((3-aminopropyl)amino)propyl)amino)-7-hydroxy-10,13-dimethylhexadecahydro-1H-cyclopenta[a]phenanthren-17-yl)pentanoyl)-D-valinate] was tested, and the “Minimum inhibitory concentration E. coli ATCC28922” value [1] was 32 µg/mL (≈ 51.7 µM), the MIC [1] was 50 µM (≈ 30.9 µg/mL) and the “Minimum inhibitory concentration E. faecalis ATCC29212” value [2] was 32 µg/mL (≈ 51.7 µM). The MIC [2] was 50 µM (≈ 30.9 µg/mL), the “Minimum inhibitory concentration S. aureus ATCC25923” value [3] was 8 µg/mL (≈ 12.9 µM) and the MIC [3] was 12.5 µM (≈ 7.74 µg/mL). For the same compound, the “Minimum inhibitory concentration P. aeruginosa ATCC27853” value [4] was 32 µg/mL (≈ 51.7 µM) and the MIC [4] was 50 µM (≈ 30.9 µg/mL).

In the case of COC(=O)[C@H](Cc1ccccc1)NC(=O)CC[C@@H](C)[C@H]1CCC2C3C(CC[C@@]21C)[C@@]1(C)CC[C@H](NCCCCCCCCCCN)C[C@H]1C[C@H]3O (stereo partly drawn) [Compound S032, methyl ((4R)-4-((3S,5S,7R,10S,13R,17R)-3-((10-aminodecyl)amino)-7-hydroxy-10,13-dimethylhexadecahydro-1H-cyclopenta[a]phenanthren-17-yl)pentanoyl)-L-phenylalaninate], the MIC [1, 5] was 50 µM and 32 µg/mL, the MIC [2, 6] was 12.5 µM and 8 µg/mL and the MIC [3, 7] was 50 µM and 32 µg/mL. The MIC [4, 8] was 200 µM and 128 µg/mL.

In the case of COC(=O)[C@@H](NC(=O)CC[C@@H](C)[C@H]1CCC2C3CC[C@@H]4C[C@@H](NCCCN5CCN(CCCN)CC5)CC[C@]4(C)C3CC[C@@]21C)C(C)C (stereo partly drawn) [Compound S056, methyl ((4R)-4-((3S,5R,10S,13R,17R)-3-((3-(4-(3-aminopropyl)piperazin-1-yl)propyl)amino)-10,13-dimethylhexadecahydro-1H-cyclopenta[a]phenanthren-17-yl)pentanoyl)-L-valinate], the MIC [1, 5] was 200 µM and 128 µg/mL, the MIC [2, 6] was 100 µM and 64 µg/mL and the MIC [3, 7] was 200 µM and 128 µg/mL. The MIC [4, 8] was > 200 µM and > 128 µg/mL.
